Experimental data as given in patent publication US5422352A, “Slimming pharmaceutical composition” (Nycomed Dak A/S, priority 1989, dated 1995).
Structures can show the parent of a compound that is named as a salt.

What was measured:
[1] = adverse drug reactions in obese patients, 24 weeks (Example 5); type: in vivo, human; conditions: for Patients complaining of adverse drug reactions / Patients withdrawn due to adverse drug reactions: 24 weeks; for adverse reactions / withdrawal symptoms (in words): human, in vivo
Text: 14 days after discontinuation of the treatment, a psychiatrist recorded any inconveniences the patient might have had during this period and physical and psychological symptoms were registered.

[2] = safety evaluation in healthy volunteers: side effects, blood pressure, heart rate (Example 2); type: in vivo, human
Description: Arterial blood pressure was measured in the right arm by a sphygmomanometer a.m. Riva-Rocci, and heart rate was determined by palpation of the peripheral heart rate in the ipsilateral radial artery. These measurements were performed after each sampling of blood.
A "Trimline" apparatus manufactured by PyMaH (Copenhagen) was used to measure the arterial blood pressure. A cuff 12-14 cm in width was employed. […] The diastolic blood pressure was determined as the manometer pressure when the Korotkoff sound quality changes from tapping to muffled.
At the end of each study comprising oral administration of the actual test substance, subjective feelings of side-effects were assessed by questioning the experimental subjects.

[3] = thermogenic effect: energy expenditure in healthy volunteers by indirect calorimetry (Example 2); type: in vivo, human; conditions: for Mean energy expenditure during 3 hours: oral single dose, not placebo-corrected; for Energy expenditure greater than placebo: mean±SE, minimum figure; for thermogenic effect (in words): human, in vivo
Description: The study was conducted in two parts. The first part was designed as a placebo-controlled, double-blind trial on the effect of 3 different doses of caffeine, 3 different doses of ephedrine and 2 placebo samples. The order of the tests were not entirely randomized, but organized in a sequence that allowed testing for a carry-over effect.
6 healthy volunteers of normal weight (3 of each sex) aged between 20 and 32 were included after informed consent was obtained. The average age of the 6 volunteers was 25 (±1) years, height, 179 (±11) cm; body weight, 70 (±13) kg; percentage of overweight, -1.7 (±8.3) % and body fat, 13 (±3) kg. The numbers in parenthesis are the standard deviation. The percentages of overweight was calculated from the individual body weight (IBW) using the midpoint of the medium frame (MMF) given in the Metropolitan Life Insurance Company tables of desirable weights (1): [formula]
A. Treatment with ephedrine comprising capsules with 10 mg, 20 mg or 40 mg of ephedrine hydrochloride, respectively.
B. Treatment with caffeine comprising capsules with 100 mg, 200 mg or 400 mg of caffeine, respectively. […]
The capsules were administered orally as single doses and swallowed with 300 ml of tap water (20° C.).
All blood samples for determination of substrate, metabolite and hormone concentrations were collected form the antecubital vein. Blood samples were taken at -30, 0, 30, 60, 90, 120, 150 and 180 minutes relative to the capsule intake (time 0). The subjects breathed through a low-resistance Scuba one-way mouthpiece. After about 10 minutes of adaptation, expiratory gas was collected in Douglas bags for 10 minute periods. Gas collection was made after each blood sampling.
Energy expenditure was measured by indirect calorimetry. Expiratory gas was continuously analyzed for the content of oxygen and carbon dioxide with a Godart Rapox Oxygenmeter and a Beckman LB-1 Medical Gas Analyzer. Respiratory steady state was assumed to be present, when the end-expiratory carbon dioxide fraction was constant. Expiratory gas was collected in Douglas bags and analyzed for the content of oxygen and carbon dioxide with Radiometer gas-electrodes connected to an acid-base analyzer (PHM 71, Copenhagen, Denmark), and the volume of expiration gas was measured with a gas meter. […] The standard gasses were analyzed with a Scholander microtechnique with a measuring error on gas fraction being <0.0005%, i.e. the error on measurement of expired gas being within ±0.1-0.2% (19). […] A fixed protein catabolism was assumed, since the error on calculating the energy expenditure by omitting the exact correction from urinary nitrogen was negligible (20). The energy expenditure was calculated taking de novo lipogenesis into account (21).
The responses to a test substance were estimated separately for each subject as the difference between the integrated numerical area of the response curve (by a trapezoidal approach) and the rectangular area determined by the basal values. To estimate the predictive, theoretical effect of combinations of ephedrine and caffeine, the single dose responses were added after subtracting the average placebo response. This calculation was performed separately for each subject before statistical analysis. A two-way analysis of variance for randomized blocks was performed (28) to test differences between experimental periods within the same experiment and to test differences between the responses to different stimuli (test substances). Post-hoc testing was applied to compare two means (28).

[4] = blood pressure and heart rate in obese patients, 24 weeks (Example 5); type: in vivo, human; conditions: week 24; for Average heart rate decrease / Average heart rate decrease, % of initial value: negative = increase
Description: Blood pressure was measured with a Trimline Sphygmomanometer (PyMaH) by the investigator every 4 weeks. After at least 10 minutes rest, the measurements were carried out in the right arm of the patient a.m. Riva-Rocci with the patient being positioned in a sitting position. A cuff of 14 to 16 cm width was employed. […] The diastolic blood pressure was determined at the manometer pressure when the Korotkoff sound quality changes from tapping to muffled.
The heart rate was determined by palpation of the peripheral heart rate in the right radial artery.
(§1) The mean difference of blood pressure, heart rate and laboratory data from the initial values (week 0) at week 12 and at week 24 was compared to initial values for each treatment group by Students' one sample t-test (SAS). Comparison of the treatment groups at a particular visit was done by one-way analysis of variance (SAS.GLM). The difference from initial values was used in order to prevent chance events influencing the results. Patients with high values, for instance, who dropped out would thus influence the mean value at the next control, without a real difference being present.

[5] = weight reducing effect in obese patients, 24 weeks, double blind (Example 5); type: in vivo, human
Description: The study was designed as a double blind, randomised, parallel study with 4 treatment groups in a 2×2 factorial design.
All patients were treated with the trial medication and prescribed a 4.2 MJ/day diet for 24 weeks.
B. Ephedrine group: Ephedrine tablets containing 20 mg ephedrine hydrochloride.
C. Caffeine group: Caffeine tablets containing 200 mg caffeine.
The patients were prescribed 1 tablet 3 times daily one hour before meals together with a 4.2 MJ/day diet consisting of NUPO® protein nutrition powder (33) (1.6 MJ/day) and free additional choice of food (2.6 MJ/day) for 24 weeks.
The patients were weighed on a decimal scale by dietitians at each visit. A Seca electronic scale (model 707) was used. The weighing limit was 200 kg, with 100 g graduations. The scale was calibrated every week.
The statistical analysis of weight loss was based on the logarithm of the initial body weight minus logarithm of the body weight at the actual visit.
As the data was logarithmically transformed as expressed above, a negative value corresponds to a supra-additive effect. Nil corresponds to additive effect and a positive value corresponds to a sub-additive effect.

[6] = laboratory methods in healthy volunteers: serum glucose, NEFA, glycerol (Example 2); type: in vivo, human; conditions: oral; for serum glucose (in words): vs placebo
Description: Through the indwelling antecubital cannula, blood was sampled without stasis in iced syringes. The blood samples were then centrifuged at 4° C. and nonesterified fatty acids (NEFA) were immediately extracted from the blood samples and later determined as described in (22). The concentration of glucose in plasma was determined using the glucose oxidase method (23), the concentration of glycerol in plasma was determined as described by Laurell and Tibbling (24), the concentration of lactate in plasma was described using the method described by Noll (25), and the concentration of triglyceride in plasma was determined as described by Giegel (26). Blood samples for the determination of methylxanthine metabolites was collected in tubes containing reduced glutathione and ethylene glycol-bis(β-aminoethyl)-N,N,N',N'-tetraacetic acid (EGTA). Samples were immediately centrifuged and the plasma was stored at -40° C. until the determination of methylxanthines was performed (see Example 4). Immunoreactive insulin, pancreatic glucagon and C-peptide concentrations were measured in the plasma samples using radioimmunoassay kits purchased from Novo, Copenhagen. All plasma aliquots for determination of pancreatic hormones and methylxanthine metabolites were coded and analyzed in a random order to avoid any systematic error due to the order of analysis. The concentrations of sodium and potassium in the plasma samples were determined by flame spectrophotometry.

[7] = laboratory methods: fasting serum glucose, triglycerides, cholesterol in obese patients (Example 5); type: in vivo, human
Description: Blood and urine samples for laboratory tests were taken before entry, and after 12 and 24 weeks.
Metabolic factors: In order to evaluate changes in the glucose and lipid metabolism of the patients during the study, triglyceride acid (TGA), cholesterol and fasting glucose were analyzed.
All clinical-chemical analyses apart from TGA and test strips for urine, were carried out at Department of Clinical Chemistry, Hvidovre Hospital, in accordance with their routine methods and assays, including the department's running quality control. The methods and the assays are routine procedures and are well-documented (7,40-48). TGA was analyzed and test strips for urine assessed at the Department of Internal Medicine, Division of Endocrinology, Hvidovre Hospital's own laboratory following the same routine procedures as above (26).
as §1

resting skeletal muscle = conditions: in vivo; cited from earlier work
[8] = ephedrine 50 mg; ephedrine plus caffeine 50 mg+100 mg; oral, 4 months; cited from earlier work
[9] = 18 weeks, 2+2+1 tablet per day; cited from earlier work
[10] = 3 ppm (3 mg/kg feed); cited from earlier work
[11] = week 12, difference from initial
[12] = week 24, difference from initial

Row | Compound | Patients complaining of adverse drug reactions [1] | Patients withdrawn due to adverse drug reactions [1] | adverse reactions / withdrawal symptoms (in words) [1] | thermogenic effect (in words) [3] | Average diastolic blood pressure decrease [4] | Average diastolic blood pressure decrease, % of initial value [4] | Average systolic blood pressure decrease [4] | Average systolic blood pressure decrease, % of initial value [4] | Average heart rate decrease [4] | Average heart rate decrease, % of initial value [4] | serum nonesterified fatty acids and glycerol (in words) [6] | serum glucose (in words) [6] | Mean difference in fasting serum glucose [7, 11] | Mean difference in serum triglycerides [7, 11] | Mean difference in fasting serum cholesterol [7, 12] | Mean difference in fasting serum glucose [7, 12] | Mean difference in serum triglycerides [7, 12] | further results
1 | Cn1c(=O)c2c(ncn2C)n(C)c1=O [Caffeine, caffeine] | 16 patients | 2 | Headache was reported by 27 patients, especially patients from the caffeine group | a significant relation between caffeine dose and thermogenic response (energy expenditure) | 8.9 mmHg | 11.0% | 9.3 mmHg | 7.3% | 5.7 BPM | 7.3% | increased the concentrations of NEFA and glycerol in the serum | hyperglycemic effect | -0.18 mmol/L | -0.11 mmol/L | -0.28 mmol/L | -0.42 mmol/L | -0.32 mmol/L | side effects (in words) ([2]; 400 mg caffeine): The incidence of side effects after administration of the active compounds and placebo, respectively, was not significant, except for caffeine 400 mg (p<0.01); Energy expenditure/(placebo value) ([3]; 100 mg caffeine): 2.5; Mean energy expenditure during 3 hours ([3]; 100 mg caffeine): 15.4 kcal/3 h; Energy expenditure greater than placebo ([3]; 100 mg caffeine): 9.2±5.7 kcal/3 h; Energy expenditure/(placebo value) ([3]; 200 mg caffeine): 2.2; Mean energy expenditure during 3 hours ([3]; 200 mg caffeine): 13.4 kcal/3 h; Energy expenditure greater than placebo ([3]; 200 mg caffeine): 7.2±6.0 kcal/3 h; Energy expenditure/(placebo value) ([3]; 400 mg caffeine): 6.2; Mean energy expenditure during 3 hours ([3]; 400 mg caffeine): 38.6 kcal/3 h; Energy expenditure greater than placebo ([3]; 400 mg caffeine): 32.4±8.2 kcal/3 h; thermogenic effect (in words) ([3]; listed as caffeine): possess thermogenic activity; Average weight loss of the whole group ([5]; 24 weeks): 11.7 kg; Weight loss of one strongly deviant patient ([5]; 24 weeks, excluded from analysis): 42.6 kg; Relative body weight ([5]; week 4, 1 tablet 3 times daily, 4.2 MJ/day diet): 95.5%; Relative body weight ([5]; week 8): 93.0%; Relative body weight ([5]; week 12): 90.4%; Relative body weight ([5]; week 16): 89.3%; Relative body weight ([5]; week 20): 88.0%; Relative body weight ([5]; week 24): 87.6%
2 | CN[C@@H](C)[C@H](O)c1ccccc1 [Ephedrine, ephedrine hydrochloride] | 20 patients | 1 | 34 patient complained of hunger, especially those who had been treated with ephedrine | possess thermogenic activity | 6.9 mmHg | 8.6% | 8.7 mmHg | 7.0% | -3.1 BPM | -4.3% | increased the concentrations of NEFA and glycerol in the serum | hyperglycemic effect | -0.55 mmol/L | -0.14 mmol/L | -0.18 mmol/L | -0.46 mmol/L | -0.66 mmol/L | systolic blood pressure and heart rate (in words) ([2]; 40 mg ephedrine hydrochloride): excessive increase in systolic blood pressure and heart rate; contribution of resting skeletal muscle to whole body thermogenesis induced (resting skeletal muscle): at least 50%; Energy expenditure/(placebo value) ([3]; 10 mg ephedrine hydrochloride): 3.5; Mean energy expenditure during 3 hours ([3]; 10 mg ephedrine hydrochloride): 22.2 kcal/3 h; Energy expenditure greater than placebo ([3]; 10 mg ephedrine hydrochloride): 16.0±10.9 kcal/3 h; Energy expenditure/(placebo value) ([3]; 20 mg ephedrine hydrochloride): 2.0; Mean energy expenditure during 3 hours ([3]; 20 mg ephedrine hydrochloride): 12.5 kcal/3 h; Energy expenditure greater than placebo ([3]; 20 mg ephedrine hydrochloride): 6.3±5.3 kcal/3 h; Energy expenditure/(placebo value) ([3]; 40 mg ephedrine hydrochloride): 3.0; Mean energy expenditure during 3 hours ([3]; 40 mg ephedrine hydrochloride): 18.3 kcal/3 h; Energy expenditure greater than placebo ([3]; 40 mg ephedrine hydrochloride): 12.1±4.9 kcal/3 h; weight loss (in words) [8]: no significant difference in weight loss; average weight loss [9]: 7.9 kg
3 | CC(C)(C)NCC(O)c1ccc(O)c(CO)c1 (stereo not shown) [salbutamol] |  |  |  |  |  |  |  |  |  |  |  |  |  |  |  |  |  | fat and protein accretion (in words) [10]: decreases fat accretion and increases protein accretion in growing pigs
